Key:
NLRP3 = biological target: T1, NLRP3 (Rattus norvegicus, UniProt D4A523); assay: LPS-stimulated IL-1β release assay in rat primary microglia; format: cell-based; details: LPS 50 ng/ml 3 h, compound 0.5 h, Nigericin 0.3 μg/mL 1 h, IL-1β ELISA
T1 construct: Newborn SD rats were used to obtain mixed glial cells from the cerebral cortex; endogenous in cells; host or cells: primary microglia from the cerebral cortex of newborn SD rats, LPS-primed, nigericin-stimulated

[1] = Pharmacokinetic evaluation in SD rats in vivo; parameters: species or system SD rat
Protocol: (§1) The pharmacokinetic characteristics of the compound in rodents after intravenous injection and oral administration were tested according to the standard protocol. In the experiment, the candidate compound was formulated into clear solutions, and a single intravenous injection and oral administration were given to SD rats. The vehicle for intravenous injection and oral administration was a mixed vehicle composed of 5% dimethyl sulfoxide and 95% solutol with a content of 5%. Four male SD rats were used in this project. Two SD rats were administered via intravenous injections, and plasma samples were collected at 0.083, 0.25, 0.5, 1, 2, 4, 8, and 24 h post-administration. The other two SD rats were administered orally by gavage, and plasma samples were collected at 0.25, 0.5, 1, 2, 4, 8, and 24 h post-administration. Plasma concentrations were quantitatively analyzed by LC-MS/MS analysis method, and pharmacokinetic parameters such as peak concentration (Cmax), clearance (CL), half-life (T1/2), volume of distribution at steady state (Vdss), area under the drug-time curve (AUC0-last), and bioavailability (F) were calculated.
as §1, with “injections at a dose of 2 mg/kg,” for “injections,”, “gavage at a dose of 10 mg/kg,” for “gavage,”

[2] = Pharmacokinetic evaluation in beagle dogs in vivo; parameters: species or system beagle dog
Protocol: as §1, with “beagle dogs” for “rodents”, “after” for “after intravenous injection and”, “beagle dogs.” for “SD rats.”, “beagle dogs” for “SD rats”, “injections at a dose of 1 mg/kg,” for “injections,”, “gavage at a dose of 2 mg/kg,” for “gavage,”

[3] = IV and PO, oral bioavailability, oral exposure, half-life, clearance

T1 sequence (D4A523 whole entry): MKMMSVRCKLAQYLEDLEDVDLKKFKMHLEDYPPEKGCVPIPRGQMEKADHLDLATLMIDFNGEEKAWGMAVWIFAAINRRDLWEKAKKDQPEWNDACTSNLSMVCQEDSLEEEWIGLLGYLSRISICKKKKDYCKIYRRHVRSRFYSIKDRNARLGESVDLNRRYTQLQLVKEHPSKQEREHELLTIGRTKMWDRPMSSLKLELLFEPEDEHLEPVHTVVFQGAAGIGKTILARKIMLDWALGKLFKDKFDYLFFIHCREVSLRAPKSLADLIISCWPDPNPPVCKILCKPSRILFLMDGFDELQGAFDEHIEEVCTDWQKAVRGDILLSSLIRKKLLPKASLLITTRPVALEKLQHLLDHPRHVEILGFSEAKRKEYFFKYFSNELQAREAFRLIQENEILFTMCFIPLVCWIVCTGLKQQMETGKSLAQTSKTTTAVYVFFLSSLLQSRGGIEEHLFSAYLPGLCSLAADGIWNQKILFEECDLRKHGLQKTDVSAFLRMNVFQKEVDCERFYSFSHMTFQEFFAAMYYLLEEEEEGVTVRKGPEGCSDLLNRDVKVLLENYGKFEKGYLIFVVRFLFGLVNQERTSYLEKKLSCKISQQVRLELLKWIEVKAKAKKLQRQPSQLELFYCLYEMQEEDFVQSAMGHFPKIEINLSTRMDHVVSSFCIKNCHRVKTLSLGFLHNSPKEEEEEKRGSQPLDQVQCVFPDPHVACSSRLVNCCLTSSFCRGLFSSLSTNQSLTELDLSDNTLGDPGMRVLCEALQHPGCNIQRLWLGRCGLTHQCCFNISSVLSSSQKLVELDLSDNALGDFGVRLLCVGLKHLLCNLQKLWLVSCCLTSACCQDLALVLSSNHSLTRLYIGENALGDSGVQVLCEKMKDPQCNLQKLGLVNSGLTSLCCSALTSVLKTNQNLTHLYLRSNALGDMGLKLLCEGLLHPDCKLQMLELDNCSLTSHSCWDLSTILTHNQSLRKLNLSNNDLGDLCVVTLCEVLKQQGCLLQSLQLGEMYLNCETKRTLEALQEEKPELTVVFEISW

IC50 (NLRP3): 35.8 nM
pharmacokinetic properties in SD rats in vivo (in words) [1, 3]: good pharmacokinetic properties
AUC(0-t) ([1]; male, rat, plasma, IV 2 mg/kg, read-out: Area under drug-time curve AUC0-last IV): 1.87 µM·h
clearance ([1]; male, rat, plasma, IV 2 mg/kg, read-out: Clearance CL): 47.4 mL/min/kg
half-life ([1]; male, rat, plasma, IV 2 mg/kg, read-out: Half-life T1/2 (IV) (converted)): 1.82 h
Vd ([1]; male, rat, plasma, IV 2 mg/kg, read-out: Volume of distribution at steady state Vdss): 6.99 L/kg
bioavailability ([1]; male, rat, plasma, PO 10 mg/kg vs IV 2 mg/kg, read-out: Bioavailability F): 27.1%
AUC(0-t) ([1]; male, rat, plasma, PO 10 mg/kg, read-out: Area under drug-time curve AUC0-last PO): 2.35 µM·h
Cmax ([1]; male, rat, plasma, oral gavage 10 mg/kg (route not given), read-out: Peak concentration Cmax): 593 nM
pharmacokinetic properties in beagle dogs in vivo (in words) [2, 3]: good pharmacokinetic properties
AUC(0-t) ([2]; male, dog, plasma, IV 1 mg/kg, read-out: Area under drug-time curve AUC0-last IV): 1.92 µM·h
clearance ([2]; male, dog, plasma, IV 1 mg/kg, read-out: Clearance CL): 25.7 mL/min/kg
half-life ([2]; male, dog, plasma, IV 1 mg/kg, read-out: Half-life T1/2 (IV) (converted)): 3.53 h
Vd ([2]; male, dog, plasma, IV 1 mg/kg, read-out: Volume of distribution at steady state Vdss): 6.9 L/kg
bioavailability ([2]; male, dog, plasma, PO 2 mg/kg vs IV 1 mg/kg, read-out: Bioavailability F): 80.9%
AUC(0-t) ([2]; male, dog, plasma, PO 2 mg/kg, read-out: Area under drug-time curve AUC0-last PO): 3.11 µM·h
Cmax ([2]; male, dog, plasma, oral gavage 2 mg/kg (route not given), read-out: Peak concentration Cmax): 504 nM
Compound: [2H]C([2H])([2H])N1CCC[C@@H](Nc2cc(C)c(-c3ccc4sccc4c3O)nn2)C1 [Compound II]

Source: patent publication US20260274830A1, “DEUTERIUM-SUBSTITUTED PYRIDAZINE BENZOTHIOPHENE COMPOUND AND USE THEREOF” (MEDSHINE DISCOVERY INC., priority 2022, published 2026)
